Data as given in patent publication US20220041578A1, “ISOINDOLINE COMPOUND, AND PREPARATION METHOD, PHARMACEUTICAL COMPOSITION, AND APPLICATION OF ISOINDOLINE COMPOUND” (Shanghai Institute of Meteria Medica, Chinese Academy of …, priority 2018, published 2022).

What follows are molecules tested on MM.1S cells (assay: Effect of the compound on the proliferation of MM.1S cells (MTS)). Conditions: Homo sapiens, MM1.S, 168 h, 7 days, read-out: Cell inhibitory activity (IC50).
Type: cell-based
Description: MM.1S cells were cultured with 1640 plus 10% fetal bovine serum and collected. The cell concentration was diluted according to the action time of 7 days, and 180 ul cell suspension was added to each well of the 96-well cell plate to make the cell count to be 20,000. 20 ul of DMSO with a final concentration of 0.2% was added to the control cell wells. The compound was diluted 5-fold with the 10 mM stock solution, and 20 ul was also added to the compound cell wells (the final concentration of DMSO is 0.2%). The cells were placed in a 37° C., 5% CO2 incubator and incubated for 7 days. After preparing the reaction solution according to the MTS kit (Promega, G5430), 20 μL was added to each well, incubated in a 37° C., 5% CO2 incubator for 3-4 h. Read the 490 nm absorbance value with a microtiter plate, and used the 690 nm absorbance value as the background value and OD490-OD690 as the final initial data. The formula for calculating the inhibition rate of the compound is: inhibition rate=(OD DMSO-ODcompound)/(ODDMSO-Oblank)×100%. The compound's proliferation inhibition IC50 was fitted by Graph Pad Prism 5.0. The experiment was repeated three times, and three parallel experiments were used to calculate the average and standard deviation each time.
In the case of `O=C1CCC(N2Cc3c(OCc4cn(-c5ccccc5)nn4)cccc3C2=O)C(=O)N1` (stereo not shown) [Compound 15, 3-(1-oxo-4-((1-phenyl-1H-1,2,3-triazol-4-)methoxy)isoindolin-2-) piperidine-2,6-dione], the IC50 is reported as under 150 nM. Work on `O=C1CCC(N2Cc3c(OCc4cn(-c5ccc(OC6COC6)cc5)nn4)cccc3C2=O)C(=O)N1` (stereo not shown) [Compound 31, 3-(4-((1-(4-(epoxypropanoxy-3-oxy)phenyl)-1H-1,2,3-triazol-4-)methoxy)-1-oxoisoindolin-2-)piperidine-2,6-dione] yielded an IC50 of under 150 nM. `C[C@@H](Cc1ccccc1)n1cc(COc2cccc3c2CN(C2CCC(=O)NC2=O)C3=O)nn1` (stereo partly drawn) [Compound 59, 3-(1-oxo-4-((1-((S)-1-phenylpropyl-2-)-1H-1,2,3-triazol-4-)methoxy)isoindolin-2-) piperidine-2,6-dione] was tested, and the IC50 was under 150 nM. `O=C1CCC(N2Cc3c(OCc4cn(-c5ccc(CCO)cc5)nn4)cccc3C2=O)C(=O)N1` (stereo not shown) [Compound 33] gave an IC50 of under 150 nM. `O=C1CCC(N2Cc3c(OC[C@H]4CCN(c5ccnc6ccccc56)C4)cccc3C2=O)C(=O)N1` (stereo partly drawn) [Compound 65, 3-(1-oxo-4-(((S)-1-(quinolin-4-)pyrrolin-3-)methoxy)isoindolin-2-) piperidine-2,6-dione] gave an IC50 of 150 to 20000 nM. `C[C@H](c1ccccc1)n1cc(COc2cccc3c2CN(C2CCC(=O)NC2=O)C3=O)nn1` (stereo partly shown) [Compound 50] showed an IC50 of under 150 nM. `O=C1CCC(N2Cc3c(OCc4cn(CCc5ccccc5)nn4)cccc3C2=O)C(=O)N1` (stereo not shown) [Compound 49] was tested, and the IC50 was under 150 nM. With `COC[C@@H](Cc1ccccc1)n1cc(COc2cccc3c2CN(C2CCC(=O)NC2=O)C3=O)nn1` (stereo partly shown) [Compound 52] the IC50 was under 150 nM. `O=C1CCC(N2Cc3c(OCc4cn(C5C6CC7CC(C6)CC5C7)nn4)cccc3C2=O)C(=O)N1` [Compound 87, 3-(4-((1-((1R, 3R, 5R, 7R)-adamantan-2-yl)-1H-1,2,3-triazol-4-yl)methoxy)-1-isoindolin-2-yl) piperidin-2,6-dione] was tested, and the IC50 was under 150 nM. `C[C@]1(N2C(=O)c3cccc(OCc4cn(-c5ccc(OC(F)(F)F)cc5)nn4)c3C2=O)CCC(=O)NC1=O` [Compound 35] gave an IC50 of 150 to 20000 nM. In the case of `C[C@]1(N2Cc3c(OCc4cn(-c5ccc(OC(F)(F)F)cc5)nn4)cccc3C2=O)CCC(=O)NC1=O` [Compound 34], the IC50 is reported as 150 to 20000 nM. For `O=C1CCC(N2Cc3c(OCC4CN(c5ccc(OC(F)(F)F)cc5)C4)cccc3C2=O)C(=O)N1` (stereo not shown) [Compound 64, 3-(1-oxo-4-((1-(4-trifluoromethoxyphenyl)azetidin-3-)methoxy)isoindolin-2-) piperidine-2,6-dione], the IC50 was 150 to 20000 nM. For `O=C1CCC(N2Cc3c(OCc4cn([C@@H](CO)Cc5ccccc5)nn4)cccc3C2=O)C(=O)N1` (stereo partly shown) [Compound 53], the IC50 was under 150 nM. `O=C1CCC(N2Cc3c(OCc4cnc(-c5nc6ccccc6s5)s4)cccc3C2=O)C(=O)N1` (stereo not shown) [Compound 46, 3-(4-(2-(benzo[d]thiazol-2-)thiazol-5-)methoxy)-1-oxoisoindolin-2-) piperidine-2,6-dione] showed an IC50 of under 150 nM. `O=C1CCC(N2Cc3c(OCCC4CN(c5ccnc6ccccc56)C4)cccc3C2=O)C(=O)N1` (stereo not shown) [Compound 69, 3-(1-oxo-4-(2-(1-(quinolin-4-)azetidin-3-)ethoxy)isoindolin-2-) piperidine-2,6-dione] showed an IC50 of 150 to 20000 nM. `O=C1CCC(N2Cc3c(OCCc4cn(-c5ccccc5)nn4)cccc3C2=O)C(=O)N1` (stereo not shown) [Compound 60, 3-(1-oxo-4-(2-(1-phenyl-1H-1,2,3-triazol-4-)ethoxy)isoindolin-2-) piperidine-2,6-dione] was tested, and the IC50 was over 20000 nM. Molecule `C[C@H](Cc1ccccc1)n1cc(COc2cccc3c2CN(C2CCC(=O)NC2=O)C3=O)nn1` (stereo partly drawn) [Compound 58, 3-(1-oxo-4-((1-((R)-1-phenylpropyl-2-)-1H-1,2,3-triazol-4-)methoxy)isoindolin-2-) piperidine-2,6-dione] has an IC50 of under 150 nM. Molecule `CN(C)C[C@@H](Cc1ccccc1)n1cc(COc2cccc3c2CN(C2CCC(=O)NC2=O)C3=O)nn1` (stereo partly shown) [Compound 57] has an IC50 of under 150 nM. `O=C1CCC(N2Cc3c(OCc4cn(Cc5cccc(OC(F)(F)F)c5)nn4)cccc3C2=O)C(=O)N1` (stereo not shown) [Compound 11] gave an IC50 of under 150 nM.
